From patent publication US3983239A, “Hexahydro-γ-carboline derivatives and their salts” (priority 1974, dated 1976)
Entries after “also recorded” stand apart in the source; their conditions may differ. Where two headings read alike, the source gives them in different places.

Tests used:
catalepsy = assay: Cataleptogenic activity, rats; assay type: in vivo; conditions: Rattus norvegicus, po; rats, p.o.; read-out: ED50 value, cataleptogenic activity
[1] = test system: electroencephalogram (EEG); assay: Activation of the electroencephalogram (EEG); assay type: in vivo; conditions: 5 mg/kg i.v., gallamine immobilized cats
[2] = test system: conditioned avoidance response; assay: Inhibiting activity of conditioned avoidance response, rats (Shuttle box method); assay type: in vivo; conditions: Rattus norvegicus, po; rats, p.o.; read-out: ED50 value, inhibiting activity of conditioned avoidance response
[3] = test system: conditioned avoidance response; assay: Inhibiting activity of conditioned avoidance response, mice; assay type: in vivo; conditions: Mus musculus, po; mice, p.o.; read-out: ED50 value, inhibiting activity of conditioned avoidance response
self-stimulation = assay: Inhibiting activity of self-stimulation, rats; assay type: in vivo; conditions: Rattus norvegicus, po; rats, p.o.; read-out: ED50 value, inhibiting activity of self-stimulation
Text: 8) J. Olds et al; J. Comp. Physiol. Psychol., Vol. 47, page

central nervous system = assay: Depression of the central nervous system (overall); conditions: in vivo
Text: 2. Depression of the central nervous system The compounds of the present invention show the same central nervous system depressing pattern as the existing neuroleptics, such as an inhibiting activity of locomotion, an inhibiting activity of conditioned avoidance response, a cataleptogenic activity, a muscle relaxant activity, an inhibiting activity of self-stimulation, and an anti-methamphetamine activity in terms of locomotor activity.

Acute toxicity, rats = conditions: rat, in vivo, male, observed 7 days
Text: (§1) Male and female STD-dd Y mice, weighing 20 to 22 g (each group: 10 mice) and male Wistar HLA rats, weighing 250 to 300 g (each group: 10 to 20 rats) were used.

locomotion [4] = assay: Inhibiting activity of locomotion, mice (Animex method); assay type: in vivo; conditions: Mus musculus, po; mice, p.o.; read-out: ED50 value, inhibiting activity of locomotion
[5] = test system: homovanillic acid (HVA) in brain; assay: Effect on homovanillic acid (HVA) in brain; assay type: in vivo, male Wistar rats; conditions: Rattus norvegicus, read-out: dose that remarkably increased the HVA in the brain
Procedure: 3. Effect on homovanillic acid (HVA for short) in brain
This test was carried out by a modified method of T. Karasawa et al. [Life Sci., Vol. 15, page 1465 (1974)].
To male Wistar rats, weighing 160 to 200 g (each group: 5 rats), was administered 8-methyl-2-[γ-(p-fluorobenzoyl)propyl]-2,3,4,4a,5,9b-hexahydro-1H-pyrido[4,3-b]indole dihydrochloride (Compound A) intraperitoneally or orally. After 90 minutes in case of the intraperitoneal administration, or after 6 hours in case of the oral administration, the test animals were decapitated, and then the HVA in the brain was measured by a fluorometric method.

locomotion [6] = assay: Inhibiting activity of locomotion, rats (Open-field method); assay type: in vivo; conditions: Rattus norvegicus, rats, read-out: ED50 value, inhibiting activity of locomotion
Text: 3) Open-field method [C.S. Hall; J. Comp. Physiol. Psychol.

[7] = test system: methamphetamine-induced stereotypy; assay: Potentiation of methamphetamine-induced stereotypy; assay type: in vivo, male Wistar HLA rats; set-up: key: ---: Marked antagonism; --: Moderate antagonism; -: Slight antagonism; 0: No interaction; +: Slight potentiation; ++: Moderate potentiation; +++: Marked potentiation; conditions: methamphetamine 2 mg/kg i.p.
Procedure: 1. Potentiation of methamphetamine-induced stereotypy
This test was carried out by a modified method of R. T. Naylor (Life Sci., Vol. 10, page 909, 1971).
To male Wistar HLA rats, weighing 200 to 250 g (each group: 6 rats), were intraperitoneally administered the compounds to be tested. After 20 minutes, methamphetamine (2 mg/kg) was intraperitoneally administered to the test animals, and then the appeared stereotypy was observed. The effects of the test compounds were evaluated by the intensity of the stereotypy and the termination thereof.

muscle relaxant activity = assay: Muscle relaxant activity, rats; assay type: in vivo; conditions: Rattus norvegicus, rats, read-out: ED50 value, muscle relaxant activity
[8] = test system: apomorphine-induced gnawing; assay: Enhancement of apomorphine-induced gnawing; assay type: in vivo; conditions: 0.03-0.7 mg/kg s.c., rats
Acute toxicity, mice = conditions: mouse, in vivo, observed 7 days
Text: as §1

[9] = cited from earlier work
amphetamine = conditions: in vivo; cited from earlier work

SMILES	ED50 (catalepsy) [mg/kg]	ED50 [2] [mg/kg]	ED50 [3] [mg/kg]	ED50 (self-stimulation) [mg/kg]	ED50 (locomotion [4]) [mg/kg]	ED50 (locomotion [6]; ip, i.p.) [mg/kg]	ED50 (locomotion [6]; po, p.o.) [mg/kg]	Stereotypy Intensity ([7]; 1.0 mg/kg i.p.)	Stereotypy Termination ([7]; 1.0 mg/kg i.p.)	Stereotypy Intensity ([7]; 2.0 mg/kg i.p.)	Stereotypy Termination ([7]; 2.0 mg/kg i.p.)	Stereotypy Intensity ([7]; 5.0 mg/kg i.p.)	Stereotypy Termination ([7]; 5.0 mg/kg i.p.)	Stereotypy Intensity ([7]; 10.0 mg/kg i.p.)	Stereotypy Termination ([7]; 10.0 mg/kg i.p.)	ED50 (muscle relaxant activity; ip, i.p.) [mg/kg]	ED50 (muscle relaxant activity; po, p.o.) [mg/kg]	LD50 at 168 h (Acute toxicity, mice; ip, male) [mg/kg]	LD50 at 168 h (Acute toxicity, mice; iv, male) [mg/kg]	LD50 at 168 h (Acute toxicity, mice; po, male) [mg/kg]	further results
Cc1ccc2c(c1)C1CN(CCCC(=O)c3ccc(F)cc3)CCC1N2.Cl.Cl (stereo not drawn) [Compound A, 8-Methyl-2-[γ-(p-fluorobenzoyl)propyl]-2,3,4,4a,5,9b-hexahydro-1H-pyrido[4,3-b]indole dihydrochloride]	34	23.8	10	61.8	9.3	2.8	33.2	0	0	++	++	+++	+++	+++	+++	3.16	11.2	134	59	589	spontaneous EEG, arousal time in the hippocampus [1]: prolongation of arousal time in the hippocampus; spontaneous EEG, cortex [1]: low-voltage high frequency in the cortex; central nervous system depressing activities (in words) (central nervous system; dihydrochloride): somewhat inferior to those of chlorpromazine; also recorded: almost comparable to those of clozapine; also recorded: far superior to those of dicarbine; LD50 at 168 h (Acute toxicity, rats; ip): 146 mg/kg; LD50 at 168 h (Acute toxicity, rats; iv): 51 mg/kg; LD50 at 168 h (Acute toxicity, rats; po): 812 mg/kg; LD50 at 168 h (Acute toxicity, rats; sc): 592 mg/kg; minimal effective dose ([5]; ip, 1.5 h, i.p., 90 minutes after administration): ≥ 5 mg/kg; minimal effective dose ([5]; po, 6 hours after administration): ≥ 13 mg/kg; incidence of gnawing after apomorphine [8]: increased the incidence of gnawing; LD50 at 168 h (Acute toxicity, mice; ip, female): 95 mg/kg; LD50 at 168 h (Acute toxicity, mice; po, female): 339 mg/kg; LD50 at 168 h (Acute toxicity, mice; sc, male): 373 mg/kg
Cc1ccc2c(c1)C1CN(C)CCC1N2 (stereo not drawn) [Dicarbine, 2,8-dimethyl-2,3,4,4a,5,9b-hexahydro-1H-pyrido[4,3-b]indole]	> 100	> 100	119	> 100	150	28.7	> 200	0	0	+	++	++	+++	+++	+++	60.3	> 100	153	79	357	central nervous system depressing activities (in words) (central nervous system): far weak in comparison with those of the present compounds; activity in clinical trials [9]: antipsychotic activity and a thymoleptic activity; activity against amphetamine (amphetamine): antagonism against amphetamine and also an activity of potentiating the amphetamine-induced stereotypy; LD50 at 168 h (Acute toxicity, mice; sc, male): 237 mg/kg
